Test systems include SK-OV-3; SR; OVCAR-4; IGROV-1; SK-MEL-2; U-251; CCRF-CEM; SK-MEL-28; SF-539; OVCAR-3; RPMI-8226; HL-60; NCI-H460; M14; MDA-N; NCI/ADR-RES; MCF7; MDA-MB-231; Hs-578T.
Common to all, as to assay: inhibition of tumour cell growth, NCI panel, 48 h

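96-well plates; 48 h exposure; 5 concentrations. Endpoints by linear interpolation between flanking doses. Not reached: highest tested concentration assigned. Abbreviation: GI50, concentration required for 50% inhibition of growth.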 The source made the active and inactive calls. No stated cut-off is given here; in the data, active = GI50 up to about 1.1 µM and inactive = higher.

Turning to `CCC(=O)OC1CCn2c1nc1c2C(=O)C(C)=C(NC(C)=O)C1=N` (configuration not stated), the GI50 with SK-OV-3 was 2.6 µM (inactive); in the test on SR it was 2 µM (inactive); in the test with OVCAR-4, 1.35 µM (inactive); in the test on IGROV-1, 2.29 µM (inactive); with SK-MEL-2 it was 1.75 µM (inactive); in the test on U-251 it was 3.74 µM (inactive). Moreover, the GI50 with CCRF-CEM is 1 µM (active); in the test on SK-MEL-28 it was 2.05 µM (inactive); with SF-539, 1.74 µM (inactive); in the test on OVCAR-3 it was 0.453 µM (active); in the test with RPMI-8226, 2.06 µM (inactive); in the test on HL-60, 0.774 µM (active). Further, the GI50 in the test with NCI-H460 is 1.47 µM (inactive).

Turning to `Cn1cc2ccccc2c1-c1nc(F)nc(OCC(=O)[C@H]2CCC3[C@@H]4CCC5=CC(=O)CC[C@]5(C)C4[C@@H](O)C[C@@]32C)n1` (some centres not stated), the GI50 is 19.1 µM (inactive) in the test with SK-OV-3; 2.86 µM (inactive) in the test on SR; 14.9 µM (inactive) with OVCAR-4; 7.48 µM (inactive) in the test with IGROV-1; 13.2 µM (inactive) with SK-MEL-2; 19.4 µM (inactive) with U-251. For the same molecule, the GI50 in the test on CCRF-CEM is 4.31 µM (inactive); with SK-MEL-28 it was 11.2 µM (inactive); in the test on SF-539, 17.8 µM (inactive); with OVCAR-3, 17 µM (inactive); in the test with RPMI-8226, 6.61 µM (inactive); in the test with M14, 20.3 µM (inactive). For the same molecule, the GI50 was 6.27 µM (inactive) with HL-60 and 21.7 µM (inactive) with NCI-H460.

For the molecule `CC(=O)Oc1ccc(-c2c(OC(C)=O)c(OC(C)=O)c(-c3ccc(OC(C)=O)c(OC(C)=O)c3)c(OC(C)=O)c2OC(C)=O)cc1`, the GI50 with MDA-N is 16.9 µM (inactive); in the test with SK-OV-3, 22.3 µM (inactive); in the test on SR, 23.9 µM (inactive); in the test on OVCAR-4, 17.6 µM (inactive); with IGROV-1 it was 15.5 µM (inactive); in the test on SK-MEL-2 it was 16.1 µM (inactive). Besides, the GI50 with U-251 is 17.5 µM (inactive); in the test with CCRF-CEM, 10.7 µM (inactive); in the test on NCI/ADR-RES, 39.7 µM (inactive); in the test with SK-MEL-28 it was 14.8 µM (inactive); in the test on SF-539, 18.2 µM (inactive); in the test on OVCAR-3 it was 15.7 µM (inactive). Moreover, the GI50 in the test with RPMI-8226 is 16.3 µM (inactive); in the test with M14, 18.1 µM (inactive); in the test with HL-60, 22.9 µM (inactive); in the test with NCI-H460, 40.1 µM (inactive); in the test with MCF7 it was 23.7 µM (inactive); in the test on MDA-MB-231, 18.6 µM (inactive).

On to `COc1ccc2[nH]c3c4c(cc(-c5ccccc5)c3c2c1)C(=O)N(c1ccccc1)C4=O`, for which the GI50 with SK-OV-3 is 26.3 µM (inactive); in the test on SR, 1.77 µM (inactive); with OVCAR-4, 0.411 µM (active); in the test on IGROV-1 it was 41.5 µM (inactive); in the test with SK-MEL-2, 21.3 µM (inactive); in the test with U-251, 5.98 µM (inactive). Moreover, the GI50 was 4.97 µM (inactive) in the test with CCRF-CEM; 37.9 µM (inactive) in the test with SK-MEL-28; 2 µM (inactive) in the test on SF-539; 17.9 µM (inactive) in the test with OVCAR-3; > 60 µM (inactive) in the test on RPMI-8226; 19.3 µM (inactive) in the test on M14. Also, the GI50 was 38.5 µM (inactive) in the test with HL-60 and 9.73 µM (inactive) in the test on NCI-H460.

Turning to `COc1cc2c(c(OC)c1)C(=O)C(=O)C(CC1(C)OCCCO1)=C2`, the GI50 in the test with SK-OV-3 is 16.6 µM (inactive); in the test on SR it was 3.3 µM (inactive); in the test with OVCAR-4, 6.22 µM (inactive); with IGROV-1, 14.2 µM (inactive); in the test on SK-MEL-2, 16 µM (inactive); with U-251 it was 15.3 µM (inactive). Besides, the GI50 was 1.91 µM (inactive) in the test with CCRF-CEM; 15.2 µM (inactive) in the test on SK-MEL-28; 17.5 µM (inactive) in the test on SF-539; 3.8 µM (inactive) in the test on OVCAR-3; 3.56 µM (inactive) in the test on RPMI-8226; 12 µM (inactive) with M14. For the same molecule, the GI50 was 1.85 µM (inactive) in the test on HL-60 and 13.3 µM (inactive) in the test with NCI-H460.

In the case of `O=[N+]([O-])/C(C(Cl)=C(Cl)Cl)=C1/OCCS1`, the GI50 in the test on MDA-N was 41.6 µM (inactive); in the test with SK-OV-3, 48.6 µM (inactive); with SR, 30.1 µM (inactive); in the test with OVCAR-4 it was 30.4 µM (inactive); in the test with IGROV-1 it was 24.4 µM (inactive); in the test on SK-MEL-2, 27.7 µM (inactive). Further, the GI50 was 36 µM (inactive) in the test on U-251; 15.9 µM (inactive) in the test on CCRF-CEM; 17.1 µM (inactive) with NCI/ADR-RES; 31.8 µM (inactive) with SK-MEL-28; 21.3 µM (inactive) with SF-539; 39.7 µM (inactive) in the test on Hs-578T. The GI50 in the test with OVCAR-3 is 14.4 µM (inactive); with RPMI-8226, 22.9 µM (inactive); in the test with M14 it was 46.7 µM (inactive); in the test with HL-60, 16.9 µM (inactive); in the test on NCI-H460, 27 µM (inactive); in the test on MCF7, 61.4 µM (inactive). In addition, the GI50 with MDA-MB-231 was 17.5 µM (inactive).

On to `COC(=O)c1c2cccccc-2c(Cc2c3cccccc-3c(C(=O)OC)c2O)c1O`, for which the GI50 in the test with SK-OV-3, with SR, with OVCAR-4, with IGROV-1, with SK-MEL-2 and in the test with U-251 was > 100 µM (inactive) in each case. The GI50 with CCRF-CEM, in the test on SK-MEL-28, in the test on SF-539, in the test on OVCAR-3, in the test with RPMI-8226 and with M14 was > 100 µM (inactive) throughout. Moreover, the GI50 with HL-60 and in the test on NCI-H460 was > 100 µM (inactive) throughout.

In the case of `Nc1ncc(Cc2nn3c(COc4ccc(Cl)cc4)nnc3s2)s1`, the GI50 was > 100 µM (inactive) with SK-OV-3; 49.2 µM (inactive) in the test with SR; > 100 µM (inactive) with OVCAR-4; > 100 µM (inactive) in the test with IGROV-1; > 100 µM (inactive) in the test with SK-MEL-2; > 100 µM (inactive) in the test with CCRF-CEM. The GI50 with NCI/ADR-RES, in the test with SK-MEL-28, in the test on SF-539, in the test on Hs-578T, with OVCAR-3 and in the test on RPMI-8226 was > 100 µM (inactive) in each case. The GI50 in the test on M14, in the test on HL-60, with NCI-H460, in the test on MCF7 and with MDA-MB-231 was > 100 µM (inactive) in each case.

Turning to `Nc1nc(Cl)cc(NCCCCCNc2cc(Cl)nc(N)n2)n1`, the GI50 in the test on SK-OV-3 is > 100 µM (inactive); with SR, 38.7 µM (inactive); in the test with OVCAR-4, 34.8 µM (inactive); in the test on IGROV-1, > 100 µM (inactive); in the test with SK-MEL-2 it was > 100 µM (inactive); in the test with U-251, > 100 µM (inactive). For the same molecule, the GI50 in the test on CCRF-CEM is 54.1 µM (inactive); in the test with SK-MEL-28, 75 µM (inactive); with SF-539 it was > 100 µM (inactive); with OVCAR-3 it was 42 µM (inactive); in the test with RPMI-8226, 33.5 µM (inactive); in the test with M14, 88.3 µM (inactive). Moreover, the GI50 with HL-60 was 27.3 µM (inactive); in the test with NCI-H460 it was > 100 µM (inactive).

With `CCOc1cc2c(cc1OC)c[n+](C)c1c3cc(OC)c(OC)cc3ccc21`, the GI50 was > 100 µM (inactive) in the test with SK-OV-3; 46.6 µM (inactive) with SR; > 100 µM (inactive) in the test on OVCAR-4; > 66.5 µM (inactive) in the test on IGROV-1; 33.3 µM (inactive) in the test on SK-MEL-2; > 33.4 µM (inactive) in the test on U-251. Besides, the GI50 is 35.9 µM (inactive) in the test on CCRF-CEM; > 64.1 µM (inactive) in the test on SK-MEL-28; > 100 µM (inactive) in the test on SF-539; > 100 µM (inactive) in the test with OVCAR-3; 40.7 µM (inactive) with RPMI-8226; > 100 µM (inactive) with M14. The GI50 with HL-60 was 17.2 µM (inactive); in the test with NCI-H460, > 73.6 µM (inactive).

For the molecule `OC(C/C=N/Nc1ccccc1)(C(F)(F)Cl)C(F)(F)Cl`, the GI50 is > 10 µM (inactive) in the test on MDA-N; > 10 µM (inactive) with SK-OV-3; > 10 µM (inactive) with OVCAR-4; 6.76 µM (inactive) in the test on IGROV-1; > 10 µM (inactive) in the test with SK-MEL-2; > 10 µM (inactive) with U-251. Besides, the GI50 in the test with CCRF-CEM is > 10 µM (inactive); in the test on NCI/ADR-RES, > 10 µM (inactive); with SK-MEL-28, > 10 µM (inactive); in the test on SF-539, > 10 µM (inactive); with Hs-578T, 4.66 µM (inactive); with OVCAR-3 it was 4.84 µM (inactive). The GI50 is > 10 µM (inactive) in the test on M14; > 10 µM (inactive) in the test with HL-60; 5.53 µM (inactive) with NCI-H460; > 10 µM (inactive) with MCF7; 4 µM (inactive) in the test on MDA-MB-231.

With `CC(C)(C)c1cc([N+](=O)[O-])cc([N+](=O)[O-])c1O` [DINOTERB], the GI50 in the test with MDA-N, with SK-OV-3, with SR, in the test on OVCAR-4, with IGROV-1 and in the test on SK-MEL-2 was > 10 µM (inactive) each time. Also, the GI50 in the test on U-251 was > 10 µM (inactive); in the test on CCRF-CEM, > 10 µM (inactive); in the test on NCI/ADR-RES, > 10 µM (inactive); in the test on SK-MEL-28 it was > 10 µM (inactive); in the test with SF-539, > 10 µM (inactive); with Hs-578T it was 8.71 µM (inactive). Besides, the GI50 in the test with OVCAR-3 was > 10 µM (inactive); with RPMI-8226, 4.12 µM (inactive); in the test with M14 it was > 10 µM (inactive); in the test with HL-60 it was > 10 µM (inactive); in the test with NCI-H460 it was 7.98 µM (inactive); in the test with MCF7 it was > 10 µM (inactive). For the same molecule, the GI50 with MDA-MB-231 is > 10 µM (inactive).

The record behind these values is ChEMBL document CHEMBL1201862, “PubChem BioAssay data set” (2004).
